Assay results published in paper PMC10048804, “Coumarin-Based Compounds as Inhibitors of Tyrosinase/Tyrosine Hydroxylase: Synthesis, Kinetic Studies, and In Silico Approaches” (International Journal of Molecular Sciences, 2023).
Entries after “also recorded” stand apart in the source; their conditions may differ. Where two headings read alike, the source gives them in different places.

Assays:
[1] = biological target: T1, mushroom tyrosinase (Agaricus bisporus, UniProt C7FF04); assay: Mushroom tyrosinase inhibition assay (L-DOPA substrate, dopachrome at 475 nm); format: biochemical
Experimental: All compounds were tested for their inhibitory effects on mushroom tyrosinase using L-DOPA as substrate. In general, the results were compared with standard tyrosinase inhibitors, such as kojic acid and ascorbic acid. […]. The mushroom tyrosinase (Sigma-Aldrich) inhibition was performed following previously reported methods. All assays were carried out with solutions containing phosphate buffer (50 mM, pH 6.8), L-DOPA (0.17 mM), EDTA (0.022 mM), tyrosinase (50–100 units), and varying concentrations of compounds, and were performed in triplicate at room temperature. The inhibitor solutions were prepared in DMSO with an initial concentration of 1 mM. Different aliquots were added to the solution containing buffer, L-DOPA, and EDTA, the enzyme being added in the end. The formation of dopachrome was determined by monitoring the absorbance at 475 nm with a T60U spectrophotometer (PG Instruments) equipped with quartz cells of 1 cm path length. Kojic acid and ascorbic acid were used as reference inhibitors with an initial concentration of 1 mM. The IC50 values were calculated from the equation generated with an exponential fit of the experimental data. […]
Target sequence in this assay (C7FF04 2-392): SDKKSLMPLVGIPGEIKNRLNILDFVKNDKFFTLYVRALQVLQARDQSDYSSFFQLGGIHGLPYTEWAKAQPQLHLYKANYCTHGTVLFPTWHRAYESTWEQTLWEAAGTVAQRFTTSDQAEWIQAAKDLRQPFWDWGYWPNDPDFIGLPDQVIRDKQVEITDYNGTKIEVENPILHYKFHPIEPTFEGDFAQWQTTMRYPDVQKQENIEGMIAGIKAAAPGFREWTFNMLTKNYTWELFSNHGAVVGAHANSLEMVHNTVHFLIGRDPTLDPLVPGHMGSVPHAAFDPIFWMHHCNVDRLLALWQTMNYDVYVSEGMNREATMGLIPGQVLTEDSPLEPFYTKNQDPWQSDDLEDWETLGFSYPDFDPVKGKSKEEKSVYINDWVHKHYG

[2] = biological target: T1, mushroom tyrosinase; assay: Kinetic analysis of the inhibition of tyrosinase (Lineweaver-Burk plots); format: biochemical; design: purchased Sigma-Aldrich; settings: L-DOPA substrate
Experimental: The mechanism for tyrosinase inhibition of the tested compounds was determined from Lineweaver–Burk double reciprocal plots. The plot provides a useful graphical method for analysis of the Michaelis–Menten equations used to determine the Km values for possible competitive, uncompetitive, non-competitive, and mixed mechanisms of inhibition. All Lineweaver–Burk plots can be found in the Supplementary Information. As can be easily noticed, the majority of tested compounds are characterized by the mixed mode of inhibition (Table 2). It is a type of enzyme inhibition in which the inhibitor may bind to the enzyme whether or not the enzyme has already bound to the substrate.
A series of experiments was performed to determine the inhibition kinetics of the tested compounds following the already reported method. The inhibitor concentrations for the tested compounds were 0.05 and 0.1 mM. The substrate L-DOPA concentration was between 0.1 and 0.25 mM in all kinetic studies, but for the FN-06 and FN-27 compounds, concentrations between 0.15 and 0.3 mM were used. Maximal initial velocity was determined from the initial linear portion of absorbance up to ten minutes after the addition of the enzyme. The inhibition type of the enzyme, Michaelis constant (Km), and maximal velocity (Vmax) were determined using Lineweaver–Burk plots of the inverse of velocities (1/V) versus the inverse of substrate concentration 1/[L-DOPA] mM^−1.
Target sequence in this assay (C7FF04 1-392 limits assumed): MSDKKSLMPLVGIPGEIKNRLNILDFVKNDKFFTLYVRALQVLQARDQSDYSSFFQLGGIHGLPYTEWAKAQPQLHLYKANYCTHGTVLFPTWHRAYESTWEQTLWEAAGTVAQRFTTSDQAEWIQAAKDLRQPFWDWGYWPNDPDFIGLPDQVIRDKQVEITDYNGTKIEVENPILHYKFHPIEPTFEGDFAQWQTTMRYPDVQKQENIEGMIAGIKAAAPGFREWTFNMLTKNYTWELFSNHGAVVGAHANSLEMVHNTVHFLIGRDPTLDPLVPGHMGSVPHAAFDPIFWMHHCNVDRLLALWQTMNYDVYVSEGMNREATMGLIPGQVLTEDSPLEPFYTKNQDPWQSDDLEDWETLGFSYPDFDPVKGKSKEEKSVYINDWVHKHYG

[3] = biological target: mushroom tyrosinase; settings: ref [39],[40],[41]; cited from earlier work
[4] = test system: cellular tyrosinase in B16F10 cells; settings: ref [39],[40],[41]; cited from earlier work
[5] = test system: B16F10 cells; settings: ref [39],[40],[41]; cited from earlier work
[6] = test system: intracellular tyrosinase; design: method as in PMID 35063859; settings: ref [45], cited from earlier work
[7] = test system: production of melanin; design: method as in PMID 35063859; settings: ref [45]; cited from earlier work
[8] = biological target: T2, tyrosinase (Agaricus bisporus, UniProt C7FF04); assay: UV-Vis spectra of L-DOPA oxidation by tyrosinase in absence and presence of inhibitor; format: biochemical, mushroom; settings: after 30 min, versus L-DOPA with tyrosinase
T2 construct: purchased Sigma-Aldrich
Experimental: The remaining compound FN-40 is a competitive inhibitor, which binds to the enzyme at its active site, preventing the binding of the substrate to the enzyme. […] To observe the effect of the oxidation of L-DOPA by tyrosinase in the absence and presence of the tested compounds, the UV-Vis spectra were determined. During L-DOPA oxidation by tyrosinase, a characteristic signal at 475 nm is observed in the UV-Vis spectrum, corresponding to the formation of dopachrome.

[9] = biological target: tyrosinase; settings: cited from earlier work

T2 sequence (C7FF04 1-392 limits assumed): as above

Inhibitory Mechanism ([2]; compound at 0.1 mM) | melting point | Molecule | also measured
Mixed |  | COc1cccc2cc(C(C)=O)c(=O)oc12 [FN-07, 3. -Acetyl-8-methoxy-2H-chromen-2-one] | 
Noncompetitive | 157 to 159 °C | CC(=O)c1cc2ccc(C)cc2oc1=O [MP-04, 3. -Acetyl-7-methyl-2H-chromen-2-one] | 
Competitive |  | CC(=O)c1cc2cc(Br)ccc2oc1=O [FN-40] | 
Mixed | 226 to 229 °C | C/C(=N\NC(N)=O)c1cc2ccc(O)cc2oc1=O [FN-17, (1E)-1-(1-(7-Hydroxy-2-oxo-2H-chromen-3-yl)ethylidene)semicarbazide] | 
Mixed | 240 to 242 °C | COc1cccc2cc(/C(C)=N/NC(N)=O)c(=O)oc12 [FN-25, (1E)-1-(1-(8-Methoxy-2-oxo-2H-chromen-3-yl)ethylidene)semicarbazide] | 
Uncompetitive | 201 to 203 °C | CC(=O)c1cc2cc([N+](=O)[O-])ccc2oc1=O [MP-03, 3. -Acetyl-6-nitro-2H-chromen-2-one] | 
mixed inhibitors |  | COc1cccc2cc(/C(C)=N/NC(N)=S)c(=O)oc12 [FN-27, (1E)-1-(1-(8-Methoxy-2-oxo-2H-chromen-3-yl)ethylidene)thiosemicarbazide] | 
Mixed |  | CC(=O)c1cc2ccccc2oc1=O [MP-05, 3. -Acetyl-2H-chromen-2-one] | 
mixed inhibitors |  | CC(=O)c1cc2ccc(O)cc2oc1=O [FN-06, 3. -Acetyl-7-hydroxy-2H-chromen-2-one] | 
 | 111 to 112 °C | CN(C)c1ccc(/C=C/C(=O)c2cc3ccccc3oc2=O)cc1 [FN-10, 3. -((E)-3-(4-(Dimethylamino)phenyl)acryloyl)-2H-chromen-2-one] | Inhibitory Mechanism ([2]; compound at 0.05 mM): mixed inhibitors

Continued, molecule first:

Molecule | Inhibitory Mechanism ([2]; compound at 0.1 mM) | melting point | also measured
(E)-N’-(4-(dimethylamino)benzylidene)-2-methylene-2H-chromene-3-carbohydrazide [FN-11] | Mixed |  | IC50 ([1]; mushroom tyrosinase, L-DOPA 0.17 mM as substrate, pH 6.8, triplicate, room temperature): 159000 nM
O=c1oc2cc(O)cc(O)c2cc1-c1ccc(Br)cc1 [Compound 3] |  |  | IC50 [3]: 1050 ± 56 nM; cellular tyrosinase activity [4]: able to inhibit; melanin production [5]: able to inhibit
CC(C)=CC(=O)O[C@H]1Cc2cc3ccc(=O)oc3cc2OC1(C)C [Compound 7, decursin] |  |  | %Tyrosine inh. ([6]; at 30 μM): 59.8 ± 0.6%; intracellular activity of tyrosinase [6]: decreases; production of melanin [7]: reduces
O=c1oc2cc(O)cc(O)c2cc1-c1cc(Br)cs1 [Compound 2] |  |  | IC50 [3]: 380 ± 84 nM; cellular tyrosinase activity [4]: able to inhibit; melanin production [5]: able to inhibit
C/C(=N\NC(N)=S)c1cc2ccc(O)cc2oc1=O [FN-19, (1E)-1-(1-(7-Hydroxy-2-oxo-2H-chromen-3-yl)ethylidene)thiosemicarbazide] | mixed inhibitor; also recorded: mixed mode |  | signal intensity at 475 nm (dopachrome formation) [8]: significant reduction; also recorded: significantly reduce
COc1cc(C2CC(c3cc4ccccc4oc3=O)=NN2c2nc(-c3ccc(Br)cc3)cs2)ccc1OCc1ccccc1 (stereo not shown) [Compound 5] |  |  | IC50 ([9]; ref [43]): 4.58 ± 0.22 nM
CC(C)=CCOc1c2occc2cc2ccc(=O)oc12 [Compound 6, marmelosin] |  |  | IC50 ([9]; ref [44]): 20300 ± 1260 nM
O=c1oc2cc(O)cc(O)c2cc1-c1cccs1 [Compound 1] |  |  | IC50 [3]: 150 ± 28 nM
COc1cccc2cc(/C(C)=N/NC(=O)c3ccncc3)c(=O)oc12 [FN-29, (13E)-N’-(1-(8-Methoxy-2-oxo-2H-chromen-3-yl)ethylidene)isonicotinohydrazide] | Mixed | 202 to 206 °C | solubility in the tyrosinase assay ([1]; in words): not soluble
